SMILES strings stand for the structures. *1 amine or outer side, *2 acyl side, *3 side chain or, on linkers, in order; H or OH if unused. Where a SMILES comes first, the peptide text is derived from it. Bridges are numbered along the chain shown (N, C = ends). Roman numbers before positions name the chains, in order. [ ]: non-standard residue; d: D form. The star is where a group is joined. X1 = O=C([C@H](CCCn1nnc2c1-c1ccccc1CN([*:3])c1ccccc1-2)N[*:1])[*:2]; Dolaproine = CO[C@@H]([C@@H]1CCCN1)[C@@H](C)C(=O)O; X3 = O=C(CCC(=O)[*:1])NCCOCCOCCOCCC(=O)[*:2]; Dil = CC[C@H](C)[C@H](NC)[C@@H](CC(=O)O)OC; PABC = O=C(OCc1ccc(N[*:1])cc1)[*:2]; X2 = C[C@@H](N*)[C@@H](O)c1ccccc1; Cit = NC(=O)NCCC[C@H](N)C(=O)O; NMeV = CN[C@H](C(=O)O)C(C)C

In data set [1] the test system is U87MG glioblastoma hip xenografts. Briefly: Ex vivo biodistribution of AF680-labeled conjugates. The class given is in vivo, mice. To be noted: radiant efficiency of excised organs. The method, then:
To further assess the tumor-to-background ratio, the uptake of fluorescently-labeled drug conjugate by each organ was measured ex vivo. Nude mice bearing U87MG glioblastoma hip xenografts were injected intravenously with Alexa Fluor 680-conjugated proteins. Mice were sacrificed after 3 or 24 h and organs were removed for imaging. […] Specifically, the liver, kidneys, spleen, pancreases, heart, lungs, bladder, quadriceps, and femur (FIG. 18).
Mice bearing U87MG flank xenografts, as described above, were injected intravenously with 1.5 nmol of Alexa Fluor 680-labeled K, KFc, or KAb. Organs (tumor, liver, kidneys, spleen, pancreas, heart, lungs, bladder, quadriceps muscle, and bone) were collected at end points of 4 h and 24 h. Organs were imaged using an IVIS Spectrum (PerkinElmer). The fluorophore-conjugated protein was detected using excitation/emission wavelengths of 640 nm and 710 nm, respectively. All imaging analysis was performed using Living Image software (Caliper Life Sciences).

Data set [2] relates to U87MG hip xenografts. Briefly: Pilot therapeutic efficacy study, dosing 3 times per week for 3 weeks. The format is in vivo, Nu/Nu mice. The method, then: Using this treatment regimen as a starting point, a preliminary study was set up using 5 mice per treatment group. Mice were inoculated with 5×10^6 U87MG cells in the right flank and tumors were allowed to grow and establish until reaching an approximate area of 30 mm^2. Mice were then randomized into 1 of 4 treatment groups: PBS, KDC, KFDC, or KADC. To keep groups equivalent and provide the highest chance of efficacy for KDC despite its short circulatory half-life, all drug conjugate groups dosed 3 times per week for 3 weeks. Each dose contained the appropriate drug conjugate normalized to 2.38 nmol MMAE (˜0.6 mg/kg KDC, ˜5 mg/kg KFDC, ˜10 mg/kg KADC).

Data set [3] in a line: Liver and kidney histology (H&E) of treated mice. The format is in vivo. To be noted: scored by independent pathologist, after the 60-day experiment. From the text: Despite the impressive in vivo efficacy of the KDCs, there are potential concerns of acute toxicity given its rapid renal filtration and high molar dose of MMAE. […] After the 60-day experiment, livers and kidneys were harvested from treated mice, fixed in 4% paraformaldehyde (PFA), then embedded in paraffin blocks for tissue sectioning. Sections were stained with hematoxylin and eosin to visualize cellular structures and scored by an independent pathologist for evidence of acute toxicity. Representative images shown in FIG. 26 were all free from indicators of toxicity and all samples were scored identically to healthy mice.

The test system of data set [4] is U87MG hip xenografts. The data set is described as follows: Therapeutic efficacy study, once weekly for four weeks, tumors implanted with Matrigel. The class given is in vivo, Nu/Nu mice. As to the method:
To further investigate each compound, several changes were made to the experimental design. Because of the KDC's rapid systemic clearance, a significant portion of the injected dose is likely lost and the ˜0.6 mg/kg dose was therefore increased substantially. Because dosages for chemotherapeutics are conventionally determined as mass of chemotherapeutic per patient body surface area, a more clinically relevant comparison of equal mass was selected over an equimolar comparison. Next, a once-per-week dosing regimen was selected to coincide with realistic clinical dosing considerations. Finally, tumors were implanted with Matrigel matrix to increase tumor growth and with only 2.5×10^6 cells per injection to decrease initial tumor necrosis. Mice bearing U87MG hip xenografts were equally distributed into the following treatment groups with intravenous injections given once weekly for 4 weeks: KDC, KFDC, KADC, unconjugated proteins, or a PBS control. Each drug conjugate was also evaluated at a low dose and a high dose.
For tumor cell implantation, female Nu/Nu mice (Charles River Laboratory) were anesthetized with 2.5% isoflurane by inhalation with a flow rate of 1 L/min. A volume of 200 μL of 50/50 PBS/Matrigel (Corning), containing 2.5×10^6 U87MG cells, was injected subcutaneously into the right flank. Tumors were allowed to grow for 7 days until reaching a size of approximately 35 mm^2. For therapeutic efficacy studies, mice were binned into experimental groups to ensure equivalent average tumor sizes and starting body weights across all groups.
Mice bearing U87MG flank xenografts, as described above, were injected intravenously with PBS, KDC, KFDC, KADC, or controls proteins. Treatments were administered once per week for four weeks. Tumors were measured three times per week using digital calipers and animal weights were recorded on each dosing day to monitor for potential weight loss as a measure of compound toxicity. Tumor area was calculated as the longest axis of the tumor multiplied by the perpendicular axis. Euthanasia criteria were defined as a tumor area greater than 150 mm^2 or a loss of 20% body weight.

Data set [5] deals with U87MG tumor spheroids. Briefly: Endpoint spheroid killing assay (SYTOX green, plate reader). The format is cell-based. To be noted: 100 nM. The method, then:
Next, this in vitro model was modified to test if similar cell killing could be visualized in addition to confocal imaging experiments. Spheroids were treated with drug conjugates or MMAE at a range of concentrations. After incubating with drug conjugates for 5 d, media was replaced with fresh media containing SYTOX green. Fluorescence measured by a BioTek Synergy H4 microtiter plate reader was compared to spheroids treated with lysis buffer. […] To visualize this killing over time, spheroids treated with 50 or 100 nM of drug conjugates or MMAE were imaged every 4 h using an IncuCyte.
Spheroids of U87MG cells were formed by seeding round-bottom, 96-well ultra-low adhesion plates (Corning) with 4×10^3 cells/well and centrifuging at 1000×g for 10 minutes. Spheroids were grown for 2 days before replacing media with 200 μL of fresh media containing 10 nM Cytox Green (ThermoFisher) and a range of concentrations of KDC, KFDC, KADC, or MMAE. After 4 d, trypsin-EDTA was added and cells were placed on a 60 RPM shaker for 10 min to disrupt spheroids. Green fluorescence was measured using was measured with a BioTek Synergy H4 microtiter plate reader. Percent toxicity was calculated by comparing green fluorescence to spheroids treated with lysis buffer.

[6] abbreviates: 1 mg/kg once weekly for 4 weeks.
The mark [7] stands for this setting: 5 mg/kg once weekly for 4 weeks.

On to `CC[C@H](C)[C@@H]([C@@H](CC(=O)N1CCC[C@H]1[C@H](OC)[C@@H](C)C(=O)N[C@H](C)[C@@H](O)c1ccccc1)OC)N(C)C(=O)[C@@H](NC(=O)[C@H](C(C)C)N(C)C(=O)OCc1ccc(NC(=O)[C@H](CCCNC(N)=O)NC(=O)[C@@H](NC(=O)CCOCCOCCOCCNC(=O)CCC(=O)N2Cc3ccccc3-c3c(nnn3CCC[C@@H]3NC(=O)[C@@H]4CSSC[C@@H]5NC(=O)[C@H](C(C)C)NC(=O)[C@H](CSSC[C@H](NC(=O)CN)C(=O)N6CCC[C@H]6C(=O)N[C@@H](CCCNC(=N)N)C(=O)N6CCC[C@H]6C(=O)N[C@@H](CCCNC(=N)N)C(=O)NCC(=O)N[C@@H](CC(=O)O)C(=O)N[C@@H](CC(N)=O)C(=O)N6CCC[C@H]6C(=O)N6CCC[C@H]6C(=O)N[C@@H](CC(C)C)C(=O)N[C@@H]([C@@H](C)O)C(=O)N4)NC(=O)CNC(=O)[C@H](C)NC(=O)[C@H](CC(C)C)NC(=O)[C@H](CSSC[C@@H](C(=O)NCC(N)=O)NC(=O)[C@H](Cc4ccc(O)cc4)NC(=O)CNC(=O)[C@H](CC(N)=O)NC(=O)[C@@H]4CCCN4C(=O)CNC5=O)NC(=O)[C@H](CC(=O)O)NC(=O)[C@H](CO)NC(=O)[C@H](CC(=O)O)NC(=O)[C@H](CCC(N)=O)NC3=O)-c3ccccc32)C(C)C)cc1)C(C)C` [KDC] (I: H-GCPRPRGDNPPLTC[X1]QDSDCLAGCVCGPNGYCG-NH2 / II: V[Cit][PABC][NMeV]V[Dil][Dolaproine]-X2; disulfide I:2-I:24, I:14-I:26, I:20-I:32; linker I:15-II:N via X3; N-terminus assumed), for which the “organ uptake ex vivo” value in data set [1] was “higher kidney and bladder uptake”. In addition, the cytostatic effect maintained in data set [2] (dose normalized to 2.38 nmol MMAE (0.6 mg/kg KDC)) was 4 of 5. Moreover, in data set [2] (dose normalized to 2.38 nmol MMAE, 5 mice per group), the complete tumor regression is 1 of 5. The “liver and kidney histology, acute toxicity” value in data set [3] is recorded as “no evidence of acute toxicity”. Besides, in data set [4] (setting [6]), the “tumor growth” value is listed as “significantly delayed tumor growth but did not cause tumor regression” and the “tumors regrew after the end of treatment” value is recorded as 5 of 5. Moreover, in data set [4] (setting [7]), the “efficacy” value is “very effective” and the tumor regression is 4 of 5. The “comparison by mass of drug conjugate per kg mouse body weight” value in data set [4] (once weekly for 4 weeks) was “significantly outperformed both KFDC and KADC”. The spheroid killing entry in data set [5] is on record as “substantially more killing than KFDC, KADC, or MMAE”.

Values taken from patent US20220211861A1, “DRUG CONJUGATES AND METHODS OF USING SAME” (The Board of Trustees of the Leland Staford Junior …, priority 2019, published 2022).
